Data taken from patent publication US12655156B2, “Oxadiazolopyrazines and oxadiazolopyridines useful as mitochondrial uncouplers” (Virginia Tech Intellectual Properties, Inc., priority 2018, dated 2026).
pEC50: −log10 of the molar value.

System: whole cells (NMuLi, C2C12, and L6 cells, isolated cardiomyocytes, human primary fibroblasts)
Test: Oxygen consumption rate (OCR) in whole cells, Seahorse XF-24 Flux Analyzer
Type: cell-based
Conditions: increase in OCR; binned EC50 values
Protocol: Biological activities of the compounds synthesized is determined by determining increase in oxygen consumption rate (OCR).
Oxygen consumption rate (OCR) in whole cells is measured in general accordance with the method of Kenwood B M et al. (Mol. Met. (2014) 3:114-123).
OCR is measured using a Seahorse XF-24 Flux Analyzer (Seahorse Biosciences, North Billerica, MA). NMuLi, C2C12, and L6 cells are seeded in a Seahorse 24-well tissue culture plate at a density of 3.5×10^4 cells/well, isolated cardiomyocytes at a density of 4×10^4 cells/well, and human primary fibroblasts at a density of 1.1×10^4 cells/well. The cells are then allowed to adhere for 24 h. Prior to the assay, the media is changed to unbuffered DMEM containing pyruvate and glutamine (Gibco #12800-017, pH=7.4 at 37° C.) and the cells are equilibrated for 30 mins at 37°° C. Compounds are injected during the assay and OCR is measured using 2 min measurement periods.
2-3 wells are used per condition and averaged over three plates (n=6-9). Statistical significance is determined by two-way ANOVA with Bonferroni's posttest.
Activities are reported as binned EC50 values: A=5 μM or less; B=>5 to 20 μM; C=over 20 μM; NA=not active.

Q: How did the pEC50 turn out when Oc1nc2nonc2nc1Nc1ccccc1C(F)(F)F [1-6, 6-((2-(Trifluoromethyl)phenyl)amino)-[1,2,5]oxadiazolo[3,4-b]pyrazin-5-ol] was run?
A: Its pEC50 is 4.70 to 5.30.

Q: How did the pEC50 turn out when Oc1nc2nonc2nc1Nc1ccc(OCc2ccccc2)cc1 [1-86, 6-((4-(benzyloxy)phenyl)amino)-[1,2,5]oxadiazolo[3,4-b]pyrazin-5-ol] was run?
A: The pEC50 was no less than 5.30.

Q: Oc1nc2nonc2nc1NC(c1ccccc1)c1ccccc1 [1-79, 6-(benzhydrylamino)-[1,2,5]oxadiazolo[3,4-b]pyrazin-5-ol] was tested. Which pEC50 did it give?
A: Its pEC50 is less than 4.70.

Q: With Oc1nc2nonc2nc1Nc1ccc(F)c(-c2ccc(C(F)(F)F)nc2)c1 [1-116, 6-((4-fluoro-3-(6-(trifluoromethyl)pyridin-3-yl)phenyl)amino)-[1,2,5]oxadiazolo[3,4-b]pyrazin-5-ol] as the compound, how does the pEC50 read?
A: The pEC50 was 4.70 to 5.30.

Q: With Oc1nc2nonc2nc1Nc1cccc(-c2ccccc2)c1 [1-104, 6-([1,1′-biphenyl]-3-ylamino)-[1,2,5]oxadiazolo[3,4-b]pyrazin-5-ol] as the compound, how does the pEC50 read?
A: Its pEC50 is no less than 5.30.

Q: Oc1nc2nonc2nc1Nc1ccc(-c2cccc(OC(F)(F)F)c2)cc1 [1-111, 6-((3′-(trifluoromethoxy)-[1,1′-biphenyl]-4-yl)amino)-[1,2,5]oxadiazolo[3,4-b]pyrazin-5-ol] was tested. Which pEC50 did it give?
A: Its pEC50 is 4.70 to 5.30.

Q: How did the pEC50 turn out when Oc1nc2nonc2nc1Nc1ccc(OCC(F)(F)F)cc1 [1-88, 6-((4-(2,2,2-Trifluoroethoxy)phenyl)amino)-[1,2,5]oxadiazolo[3,4-b]pyrazin-5-ol] was run?
A: The pEC50 was less than 4.70.

Q: With Cc1ccc(Nc2nc3nonc3nc2O)cc1 [1-58, 6-(p-Tolylamino)-[1,2,5]oxadiazolo[3,4-b]pyrazin-5-ol] as the compound, how does the pEC50 read?
A: The pEC50 was less than 4.70.

Q: CCCC#Cc1ccc(Nc2nc3nonc3nc2O)c(OC(F)(F)F)c1 [1-64, 6-((4-(Pent-1-yn-1-yl)-2-(trifluoromethoxy)phenyl)amino)-[1,2,5]oxadiazolo[3,4-b]pyrazin-5-ol] was tested. Which pEC50 did it give?
A: Its pEC50 is no less than 5.30.

Q: Oc1nc2nonc2nc1Nc1cccc(-c2ccc(OC(F)F)cc2)c1 [1-113, 6-((4′-(difluoromethoxy)-[1,1′-biphenyl]-3-yl)amino)-[1,2,5]oxadiazolo[3,4-b]pyrazin-5-ol] was tested. Which pEC50 did it give?
A: The pEC50 was no less than 5.30.

Q: How did the pEC50 turn out when Oc1nc2nonc2nc1Nc1cccc(-c2cccc(C(F)(F)F)c2)c1 [1-135, 6-((3′-(trifluoromethyl)-[1,1′-biphenyl]-3-yl)amino)-[1,2,5]oxadiazolo[3,4-b]pyrazin-5-ol] was run?
A: Its pEC50 is no less than 5.30.

Q: How did the pEC50 turn out when Oc1nc2nonc2nc1Nc1ccc(OCC(F)(F)F)c(C(F)(F)F)c1 [1-91, 6-((4-(2,2,2-Trifluoroethoxy)-3-(trifluoromethyl)phenyl)amino)-[1,2,5]oxadiazolo[3,4-b]pyrazin-5-ol] was run?
A: Its pEC50 is 4.70 to 5.30.

Q: How did the pEC50 turn out when Oc1nc2nonc2nc1Nc1ccc(C(F)(F)F)cc1F [1-16, 6-((2-Fluoro-4-(trifluoromethyl)phenyl)amino)-[1,2,5]oxadiazolo[3,4-b]pyrazin-5-ol] was run?
A: The pEC50 was no less than 5.30.

Q: With Cc1ccc(CNc2nc3nonc3nc2O)cc1 [1-78, 6-((4-methylbenzyl)amino)-[1,2,5]oxadiazolo[3,4-b]pyrazin-5-ol] as the compound, how does the pEC50 read?
A: Its pEC50 is less than 4.70.

Q: How did the pEC50 turn out when CC(Nc1nc2nonc2nc1O)C12CC3CC(CC(C3)C1)C2 [1-83, 6-((1-((1S,3S)-adamantan-1-yl)ethyl)amino)-[1,2,5]oxadiazolo[3,4-b]pyrazin-5-ol] was run?
A: The pEC50 was 4.70 to 5.30.

Q: With Oc1nc2nonc2nc1Nc1ccc(OC(F)(F)F)c(Cl)c1 [1-24, 6-((3-Chloro-4-(trifluoromethoxy)phenyl)amino)-[1,2,5]oxadiazolo[3,4-b]pyrazin-5-ol] as the compound, how does the pEC50 read?
A: The pEC50 was no less than 5.30.

Q: Oc1nc2nonc2cc1Nc1cccc(C(F)(F)F)c1F [1-232, 6-((2-fluoro-3-(trifluoromethyl)phenyl)amino)-[1,2,5]oxadiazolo[3,4-b]pyridin-5-ol] was tested. Which pEC50 did it give?
A: The pEC50 was less than 4.70.

Q: With Cc1cc(OC(F)(F)F)ccc1Nc1nc2nonc2nc1O [1-32, 6-((2-Methyl-4-(trifluoromethoxy)phenyl)amino)-[1,2,5]oxadiazolo[3,4-b]pyrazin-5-ol] as the compound, how does the pEC50 read?
A: The pEC50 was no less than 5.30.

Q: How did the pEC50 turn out when Oc1nc2nonc2cc1Nc1cccc(C(F)(F)F)c1 [1-234, 6-((3-(trifluoromethyl)phenyl)amino)-[1,2,5]oxadiazolo[3,4-b]pyridin-5-ol] was run?
A: Its pEC50 is less than 4.70.

Q: Oc1nc2nonc2nc1Nc1ccc(-c2ccccc2)cc1 [1-103, 6-([1,1′-biphenyl]-4-ylamino)-[1,2,5]oxadiazolo[3,4-b]pyrazin-5-ol] was tested. Which pEC50 did it give?
A: Its pEC50 is no less than 5.30.

Q: With Oc1nc2nonc2nc1Nc1ccc(Br)cc1F [1-43, 6-((4-Bromo-2-fluorophenyl)amino)-[1,2,5]oxadiazolo[3,4-b]pyrazin-5-ol] as the compound, how does the pEC50 read?
A: Its pEC50 is no less than 5.30.

Q: How did the pEC50 turn out when N#Cc1cc(-c2ccc(Nc3nc4nonc4nc3O)cc2)ccc1F [1-129, 4-fluoro-4′-((6-hydroxy-[1,2,5]oxadiazolo[3,4-b]pyrazin-5-yl)amino)-[1,1′-biphenyl]-3-carbonitrile] was run?
A: The pEC50 was 4.70 to 5.30.

Q: How did the pEC50 turn out when COc1cccc(-c2ccc(Nc3nc4nonc4nc3O)cc2)c1 [1-137, 6-((3′-methoxy-[1,1′-biphenyl]-4-yl)amino)-[1,2,5]oxadiazolo[3,4-b]pyrazin-5-ol] was run?
A: Its pEC50 is no less than 5.30.

Q: Oc1nc2nonc2nc1Nc1ccc(-c2cccc(C(F)(F)F)c2)cc1 [1-110, 6-((3′-(trifluoromethyl)-[1,1′-biphenyl]-4-yl)amino)-[1,2,5]oxadiazolo[3,4-b]pyrazin-5-ol] was tested. Which pEC50 did it give?
A: Its pEC50 is 4.70 to 5.30.

Q: With Oc1nc2nonc2nc1Nc1cccc2ccccc12 [1-50, 6-(Naphthalen-1-ylamino)-[1,2,5]oxadiazolo[3,4-b]pyrazin-5-ol] as the compound, how does the pEC50 read?
A: Its pEC50 is 4.70 to 5.30.

Q: Oc1nc2nonc2nc1Nc1ccc(C(F)(F)F)nc1 [1-208, 6-((6-(trifluoromethyl)pyridin-3-yl)amino)-[1,2,5]oxadiazolo[3,4-b]pyrazin-5-ol] was tested. Which pEC50 did it give?
A: Its pEC50 is less than 4.70.

Q: CCCCOc1cccc(Nc2nc3nonc3nc2O)c1 [1-96, 6-((3-butoxyphenyl)amino)-[1,2,5]oxadiazolo[3,4-b]pyrazin-5-ol] was tested. Which pEC50 did it give?
A: Its pEC50 is no less than 5.30.

Q: Oc1nc2nonc2nc1Nc1ccc(-c2cc(F)cc(F)c2)cc1 [1-121, 6-((3′,5′-difluoro-[1,1′-biphenyl]-4-yl)amino)-[1,2,5]oxadiazolo[3,4-b]pyrazin-5-ol] was tested. Which pEC50 did it give?
A: The pEC50 was no less than 5.30.

Q: How did the pEC50 turn out when Cc1ccc(-c2cccc(Nc3nc4nonc4nc3O)c2)cc1 [1-132, 6-((4′-methyl-[1,1′-biphenyl]-3-yl)amino)-[1,2,5]oxadiazolo[3,4-b]pyrazin-5-ol] was run?
A: The pEC50 was no less than 5.30.

Q: How did the pEC50 turn out when Oc1nc2nonc2nc1Nc1cccc(OCc2ccc(C(F)(F)F)cc2)c1 [1-97, 6-((3-((4-(Trifluoromethyl)benzyl)oxy)phenyl)amino)-[1,2,5]oxadiazolo[3,4-b]pyrazin-5-ol] was run?
A: The pEC50 was no less than 5.30.

Q: Oc1nc2nonc2nc1Nc1cccc(F)c1F [1-14, 6-((2,3-Difluorophenyl)amino)-[1,2,5]oxadiazolo[3,4-b]pyrazin-5-ol] was tested. Which pEC50 did it give?
A: The pEC50 was 4.70 to 5.30.

Q: With CC12CC3CC(C)(C1)CC(Nc1nc4nonc4nc1O)(C3)C2 [1-82, 6-(((1R,3R,5S,7R)-3,5-dimethyladamantan-1-yl)amino)-[1,2,5]oxadiazolo[3,4-b]pyrazin-5-ol] as the compound, how does the pEC50 read?
A: The pEC50 was no less than 5.30.

Q: How did the pEC50 turn out when Oc1nc2nonc2cc1Nc1cccc(OC(F)(F)F)c1 [1-229, 6-((3-(trifluoromethoxy)phenyl)amino)-[1,2,5]oxadiazolo[3,4-b]pyridin-5-ol] was run?
A: Its pEC50 is 4.70 to 5.30.

Q: Oc1nc2nonc2nc1Nc1ccc(-c2ccc(C(F)(F)F)cc2)cc1 [1-130, 6-((4′-(trifluoromethyl)-[1,1′-biphenyl]-4-yl)amino)-[1,2,5]oxadiazolo[3,4-b]pyrazin-5-ol] was tested. Which pEC50 did it give?
A: The pEC50 was 4.70 to 5.30.

Q: Oc1nc2nonc2nc1Nc1ccc(OC(F)F)cc1 [1-27, 6-((4-(Difluoromethoxy)phenyl)amino)-[1,2,5]oxadiazolo[3,4-b]pyrazin-5-ol] was tested. Which pEC50 did it give?
A: The pEC50 was less than 4.70.
